In one assay the target is T1, 5-lipoxygenase (Cavia porcellus, UniProt A0A286X958).
T1 construct: The cytosol fraction was used as an enzyme solution; from tissue; host or cells: peritoneal exudate cells of casein-injected Hartley guinea pigs, 105,000×g cytosol
T1 sequence (A0A286X958 1-674): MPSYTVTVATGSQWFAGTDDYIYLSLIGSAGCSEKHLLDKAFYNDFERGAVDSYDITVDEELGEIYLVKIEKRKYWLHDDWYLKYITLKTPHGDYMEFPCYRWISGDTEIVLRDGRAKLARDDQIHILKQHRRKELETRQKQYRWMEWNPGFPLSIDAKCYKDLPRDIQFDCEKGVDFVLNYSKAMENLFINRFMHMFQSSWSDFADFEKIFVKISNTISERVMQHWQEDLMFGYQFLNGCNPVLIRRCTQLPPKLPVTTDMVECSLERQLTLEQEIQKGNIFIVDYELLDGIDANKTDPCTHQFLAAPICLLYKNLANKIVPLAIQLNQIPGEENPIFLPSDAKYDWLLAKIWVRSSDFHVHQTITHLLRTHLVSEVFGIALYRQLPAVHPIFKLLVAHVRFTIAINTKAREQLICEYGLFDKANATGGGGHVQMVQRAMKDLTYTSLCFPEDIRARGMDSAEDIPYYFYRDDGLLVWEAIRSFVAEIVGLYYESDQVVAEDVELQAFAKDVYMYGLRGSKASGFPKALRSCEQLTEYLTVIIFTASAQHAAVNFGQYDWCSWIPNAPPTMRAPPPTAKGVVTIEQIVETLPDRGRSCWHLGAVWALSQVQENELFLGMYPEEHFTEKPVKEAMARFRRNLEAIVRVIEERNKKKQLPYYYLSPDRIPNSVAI
Nature of the assay: 5-Lipoxygenase inhibiting activity (5-HETE formation, cytosol of peritoneal exudate cells). The conditions noted are these: read-out: Inhibition rate (5-lipoxygenase); for inhibition at 10 µM: 10 μM in the reaction mixture; for inhibition at 1 µM: 1 μM in the reaction mixture. It is filed as biochemical, Hartley guinea pigs. How it is done: 5-Lipoxygenase inhibiting activity of the compound of the present invention was measured referring to the method for measuring 5-lipoxygenase activity by K. Ochi et al. [Journal of Biological Chemistry (J. Biol. Chem.), 258, 5754(1983)].
Sterilized 2% solution of casein (pH 7) was injected intraperitoneally into Hartley guinea pigs in a volume of 5 ml/100 g body weight. Fifteen hours later, the guinea pigs were killed and peritoneal exudate cells thereof were collected. After the exudate cells were washed with 17 mM Tris--HCl buffer (pH 7.4) containing 0.74% ammonium to remove contaminating erythrocytes in the exudate cells suspension, the cells were washed with buffer A (130 mM NaCl, 1 mM EDTA, 25 mM sodium phosphate, pH 7.4). The washed cells were suspended in buffer B (50 mM sodium phosphate, 1 mM EDTA, 0.1% gelatin, pH 7.4) at 10^8 cells/ml, sonicated and centrifuged at 10,000×g for 20 minutes under the cold atmosphere. The obtained supernatant was further centrifuged at 105,000×g for 60 minutes under the cold atmosphere. The cytosol fraction was used as an enzyme solution.
The enzyme solution was preincubated with the […] in the presence of 1 mM CaCl2, 1 mM reduced gluthathione (GSH) and 2 mM ATP at 30° C. for 5 minutes in 0.2 ml of a reaction mixture and the mixture was further incubated at 30° C. for 5 minutes by adding 20 μM [1-^14 C] arachidonic acid (0.1 μCi) thereto. The test compounds were dissolved in ethanol to give the reaction mixture containing 2% ethanol as a final concentration. Only ethanol was added to the reaction mixture as a control group.
To the reaction mixture were added 2.5 ml of a mixture of chloroform and methanol (2/1 by volume) and 0.3 ml of 40 mM citric acid to stop the reaction. The mixture was vortexed and an organic solvent layer was evaporated to dryness under nitrogen gas. After dissolving the dried organic layer in a fixed amount of the mixture of chloroform and methanol (2/1 by volume), it was spotted on a silica gel plate (Kiesel gel 60F254, E. Merck) and products were separated using a developer (the organic solvent layer of ethyl acetate/water/2,2,4-trimethylpentane/acetic acid=11/10/5/2 by volume). After the radioactive position of the product was determined by means of a radioautography, an area equivalent to that of 5-hydroxyeicosatetraenoic acid (hereinafter referred to as "5-HETE") was scraped off, and then its radioactivity was measured with a liquid scintillation counter. With regarding the amount of the generated 5-HETE as the 5-lipoxygenase inhibiting activity, the inhibition rate (%) in comparison with the control group was calculated according to the following equation. [formula]

Assay [1] addresses T2, epidermal growth factor receptor-tyrosine kinase complex (Homo sapiens, UniProt P00533).
T2 construct: The membrane preparation was employed in the following measurement without solubilization; endogenous in cells; host or cells: A-431 (ATCC CRL1555), membrane preparation, not solubilized
Description: Tyrosine kinase inhibiting activity (A-431 membrane preparation, EGF-stimulated). As to conditions: read-out: Tyrosine kinase inhibition rate; for inhibition at 10 µM: 10 μM in the reaction mixture; for inhibition at 1 µM: 1 μM in the reaction mixture. It is filed as biochemical. How it is done: Tyrosine kinase inhibiting activity of the compound of the present invention was measured referring to a method for measuring tyrosine kinase activity by G. Carpenter or by S. Cohen et al. [J. Biol. Chem., 254, 4884(1979); J. Biol. Chem., 257, 1528(1982)].
Cell line A-431 derived from human carcinoma (ATCC CRL1555) was cultured at 37° C. under the condition of 5% CO2 in Dulbecco's modified Eagle's medium (made by NISSUE PHARMACEUTICAL CO., LTD.) containing 10% by volume fetal bovine serum, 50 μg/ml of streptomycin, 50 IU/ml of penicillin G and 50 μg/ml of kanamycin. […] The membrane preparation was employed in the following measurement without solubilization.
A test compound dissolved in dimethylsulfoxide (hereinafter referred to as "DMSO") was added to a mixture of 20 mM of N-2-hydroxyethylpiperazine-N'-2-ethanesulfonic acid buffer (pH 7.4), 1 mM of MnCl2, 7.5 μg of bovine serium albumin and the membrane preparation (10 μg as protein). After incubation at 0° C. for 5 minutes, 100 ng of epidermal growth factor (hereinafter referred to as "EGF") was added thereto and the mixture was further incubated at 0° C. for 15 minutes. [γ-^32 P]ATP (3000 Ci/mmol, 0.1 μCi) was added thereto to make final volume of 70 μl. After incubation at 0° C. for 15 minutes, 50 μl of the reaction mixture was soaked into Whatman 3 MM filter paper (made by Whatman Ltd.) and immediately the reaction was stopped by an aqueous solution of 10% by weight trichloroacetic acid containing 10 mM sodium pyrophosphate. The filter paper was sufficiently washed with the same solution and then washed with ethanol, and dried. Radioactivity present in the filter paper was measured by liquid scintillation counter (A). Also, radioactivity was measured in case of the reaction without EGF (B), the reaction without the test compound (C), and the reaction without both EGF and the test compound (D) as a control.
Tyrosine kinase inhibition rate (%) was calculated by the following equation. [formula]

The test system of assay [2] is Nycobacterium smegmatis ATCC 607. Nature of the assay: Antibacterial activity (MIC) against acid-fast bacteria. The format is cell-based. As to conditions: 37° C., 40 to 42 hours. How it is done: As for acid-fast bacteria, after cultured in glycerol broth medium, there was prepared a bacterial suspension for inoculation containing about 10^6 of the bacteria per 1 ml of the medium. On the other hand, there were prepared some glycerol Czapek agar plating media with adding the test compounds, and thereto the bacterial suspension for inoculation was streaked.

Assay [3] addresses T3, reverse transcriptase derived from Moloney-Murine Leukemia Virus (M-MLV) (Moloney murine leukemia virus, UniProt P03355).
T3 construct: reverse transcriptase derived from Moloney-Murine Leukemia Virus; purchased Pharmacia K. K
Description: Inhibiting activity against reverse transcriptase derived from M-MLV. The format is biochemical. As to conditions: read-out: Inhibition rate (reverse transcriptase derived from M-MLV); for inhibition at 10 µM: 10 μM in the reaction mixture. Here is the method:
There was found the following point by using reverse transcriptase derived from Moloney-Murine Leukemia Virus (hereinafter referred to as "M-MLV").
The compound of the present invention was dissolved in DMSO to give a 100 mM solution thereof. Then, the solution was diluted with distilled water containing DMSO to give a solution of the test compound having a defined concentration. A mixed ratio of DMSO and distilled water was adjusted so that the concentration of DMSO at this time is 10% by volume and a final concentration of DMSO at the beginning of a reaction is 1% by volume.
The thus prepared solution of the test compound was mixed with a solution containing 50 mM of Tris--HCl buffer (pH 8.3), 8 mM of MgCl2, 30 mM of NaCl, 50 mM of dithiothreitol (made by Wako Pure Chemical Industries Ltd.), 0.2 mM of thymidine-5'-triphosphate (made by Pharmacia K. K.) and 6 U/ml of reverse transciptase derived from M-MLV (made by Pharmacia K. K.), and preincubated at 37° C. for 30 minutes. After there was added thereto 10 μg/ml of polyadenylic acid (made by PL Biochemicals Co., Ltd.), 0.01 U/ml of oligodeoxy thymidylic acid (made by Pharmacia K. K.) and 10 μCi/ml of [methyl-^3 H] thymidine-5'-triphosphate (made by Amersham Japan Co., Ltd., 47 Ci/mmol) to give a reaction mixture, the mixture was further incubated at 37° C. for 30 minutes, followed by cooling with ice to stop the reaction.
The radioactivity incorporated into deoxyribonucleic acids was measured according to the method of Linteril et al (Science 170, 447 to 449 (1967)). A defined volume of the reaction mixture was soaked into DE-81 filter paper (made by Whatman Ltd.), the filter paper was washed with 5% by weight of Na2 HPO4 solution for three times, and with distilled water and ethanol successively, and then dried. Radioactivity contained in the filter paper was measured by liquid scintillation counter to give the each radioactivity of the test solution groups.
On the other hand, the same procedure as above was carried out using DMSO-distilled water without the test compound instead of using the test solution, to give the value of radioactivity of a control group.
Reverse transcriptase derived from M-MLV inhibition rate (%) was calculated by the following equation. [formula]

Assay [4] relates to antigen-induced airway constriction. Nature of the assay: Inhibitory activity against antigen-induced airway constriction in actively sensitized guinea pigs. It is filed as in vivo. The conditions noted are these: Cavia porcellus, iv, 3 minutes before antigen inhalation, read-out: Inhibition rate (airway constriction). How it is done: (3) Inhibitory activity against antigen-induced airway constriction in actively sensitized guinea pigs
That is, the sensitized guinea pigs (5 guinea pigs/group) were provided with artificial respiration by inserting a tracheal cannula under urethane anesthesia (1.5 g/kg body weight, intraperitoneal administration), and then, gallamine at 1 mg/kg body weight was injected intravenously to stop spontaneous respiration of the guinea pigs. Inhalation of 0.5% aqueous solution of ovalbumin was conducted using a nebulizer for 1 minute to increase antigen-induced airway constriction, at the same time, airway pressure was recorded through a transducer. Test compound was administered into jugular vein (i.v.) of the guinea pig 3 minutes before the antigen inhalation or administered orally (p.o.) 2 hours before the antigen inhalation. As a positive control compound, theophylline which was a drug for anti-asthma was used. The effect of the compound was estimated by calculating the maximum value of airway constriction (%) in comparison with the control group, according to the following equation. [formula]

T2 sequence (P00533 25-1210, one chain of several): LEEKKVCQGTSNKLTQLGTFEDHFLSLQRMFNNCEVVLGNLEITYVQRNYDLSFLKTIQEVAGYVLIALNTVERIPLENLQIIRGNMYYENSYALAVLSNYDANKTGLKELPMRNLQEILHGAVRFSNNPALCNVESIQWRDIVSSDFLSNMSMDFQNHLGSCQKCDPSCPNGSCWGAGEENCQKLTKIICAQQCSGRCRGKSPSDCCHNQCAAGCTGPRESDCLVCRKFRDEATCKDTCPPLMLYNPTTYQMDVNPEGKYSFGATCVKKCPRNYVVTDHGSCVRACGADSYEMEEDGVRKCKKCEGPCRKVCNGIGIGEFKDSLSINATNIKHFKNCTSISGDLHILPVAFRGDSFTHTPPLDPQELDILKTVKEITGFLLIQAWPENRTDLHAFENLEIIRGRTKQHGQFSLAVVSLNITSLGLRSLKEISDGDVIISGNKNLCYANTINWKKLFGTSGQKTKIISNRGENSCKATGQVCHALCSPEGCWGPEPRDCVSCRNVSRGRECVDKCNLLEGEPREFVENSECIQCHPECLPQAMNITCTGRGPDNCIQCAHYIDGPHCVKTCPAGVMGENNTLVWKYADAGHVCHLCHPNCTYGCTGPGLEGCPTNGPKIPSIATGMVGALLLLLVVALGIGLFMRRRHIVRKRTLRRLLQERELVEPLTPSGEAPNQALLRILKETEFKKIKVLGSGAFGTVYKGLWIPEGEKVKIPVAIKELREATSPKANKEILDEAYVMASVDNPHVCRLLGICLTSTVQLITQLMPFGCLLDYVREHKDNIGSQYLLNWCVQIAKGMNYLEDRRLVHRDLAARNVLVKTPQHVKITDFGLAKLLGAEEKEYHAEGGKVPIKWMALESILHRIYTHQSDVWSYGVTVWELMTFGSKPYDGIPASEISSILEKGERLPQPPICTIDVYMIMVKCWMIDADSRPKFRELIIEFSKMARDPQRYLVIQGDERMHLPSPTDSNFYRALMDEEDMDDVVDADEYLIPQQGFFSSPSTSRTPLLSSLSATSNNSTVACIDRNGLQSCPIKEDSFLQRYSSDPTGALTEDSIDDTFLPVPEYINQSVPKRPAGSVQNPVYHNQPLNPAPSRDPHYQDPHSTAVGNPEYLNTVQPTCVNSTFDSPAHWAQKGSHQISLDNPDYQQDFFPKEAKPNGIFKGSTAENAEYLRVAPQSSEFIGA

For `CC(C)c1cc(C=C2SC(NCc3ccc([N+](=O)[O-])cc3)=NC2=O)cc(C(C)C)c1O` [Compound 40], the inhibition at 10 µM on 5-lipoxygenase was determined as 87%; in assay [1], 21%. Regarding `CCCCOc1cc(C=C2SC(NCc3ccccc3)=NC2=O)cc(CSc2ccccc2)c1O` [Compound 29], the values for the inhibition at 1 µM (on 5-lipoxygenase; in assay [1]) were 86% and 63%, respectively. For the molecule `CC(C)c1cc(C=C2SC(NCc3cccs3)=NC2=O)cc(C(C)C)c1O` [Compound 44], in assay [1], the inhibition at 1 µM was found to be 80%. Besides, the MIC in assay [2] was ≤ 6 mg/L. On the same counts, the results for `CCOc1cc(C=C2SC(NCc3ccccc3)=NC2=O)cc(CSc2ccccc2)c1O` [Compound 28] are 66% and ≤ 15 mg/L. As to `COc1cc(C=C(C#N)C(N)=O)cc(Cc2ccccc2)c1O` [Compound 22], the inhibition at 10 µM on 5-lipoxygenase came to 63%. The inhibition at 1 µM in assay [1] was determined as 84%.

With `O=C1Nc2ccccc2S(=O)(=O)C1=Cc1cc(Cc2ccccc2)c(O)c(Cc2ccccc2)c1` [Compound 5], the inhibition at 1 µM in assay [1] worked out at 42%. Further, the inhibition at 10 µM in assay [3] is 87%. Turning to `O=C1Nc2ccccc2C1=Cc1cc(-c2ccccc2)c(O)c(-c2ccccc2)c1` [Compound 3], in assay [1], the inhibition at 1 µM came to 45%. Consider `O=C1N=C(NCc2ccco2)SC1=Cc1cc(O)c(O)c(CSc2ccccc2)c1` [Compound 27], for which the figures for the inhibition at 1 µM in assay [1] and in assay [3] (1 μM in the reaction mixture) were 58% and 73%, respectively. Take `O=C1N=C(NCc2ccccc2)SC1=Cc1cc(-c2ccccc2)c(O)c(-c2ccccc2)c1` [Compound 25]: at 5-lipoxygenase, the inhibition at 1 µM stood at 23%. In addition, the inhibition at 10 µM in assay [1] amounted to 72%. `O=C1Nc2ccccc2C1=Cc1cc(CSc2ccccc2)c(O)c(OCc2ccccc2)c1` [Compound 12]: the inhibition in vivo at 1 mg/kg in assay [4] (1 mg/kg) came out at 32%. Further, at 5-lipoxygenase, the inhibition at 1 µM worked out at 84%. Moreover, the inhibition at 10 µM in assay [1] was determined as 30%. As for `CCCCOc1cc(C=C2C(=O)Nc3ccccc32)cc(Cc2ccccc2)c1O` [Compound 14], the inhibition at 1 µM at 5-lipoxygenase was 27%; in assay [1], 43%. On to `O=C1OCCC1=Cc1cc(Cc2ccccc2)c(O)c(Cc2ccccc2)c1` [Compound 17], for which, in assay [1], the inhibition at 1 µM came to 25%. With `CC(C)c1cc(C=C2SC(NCc3ccco3)=NC2=O)cc(C(C)C)c1O` [Compound 43], in assay [4] (5 mg/kg), the inhibition in vivo at 5 mg/kg stood at 21%. The inhibition at 1 µM on 5-lipoxygenase turned out to be 53%. The inhibition at 10 µM in assay [1] turned out to be 95%. As to `CCOc1cc(C=C(C#N)C(N)=O)cc(Cc2ccccc2)c1O` [Compound 21], in assay [1], the inhibition at 1 µM came out at 98%. Regarding `COc1cc(C=C2C(=O)Nc3ccccc32)cc(Cc2ccccc2)c1O` [Compound 13], on 5-lipoxygenase, the inhibition at 1 µM turned out to be 86%. As for `CCOc1cc(C=C2SC(=S)NC2=O)cc(CSc2ccccc2)c1O` [Compound 6], the inhibition at 10 µM in assay [3] worked out at 98%.

In general, inhibition refers to the change of the read-out against control, counted positive when it falls. In general, MIC refers to the least concentration at which growth counts as inhibited. A higher MIC goes with weaker potency.
